Broadly, the IC50 is the concentration at which inhibition is half-maximal.

Structures are written as SMILES.

The target in this test is T1, BTK kinase (Homo sapiens, UniProt Q06187).
T1 construct: purchased Invitrogen PR5442A
T1 sequence (Q06187 whole entry): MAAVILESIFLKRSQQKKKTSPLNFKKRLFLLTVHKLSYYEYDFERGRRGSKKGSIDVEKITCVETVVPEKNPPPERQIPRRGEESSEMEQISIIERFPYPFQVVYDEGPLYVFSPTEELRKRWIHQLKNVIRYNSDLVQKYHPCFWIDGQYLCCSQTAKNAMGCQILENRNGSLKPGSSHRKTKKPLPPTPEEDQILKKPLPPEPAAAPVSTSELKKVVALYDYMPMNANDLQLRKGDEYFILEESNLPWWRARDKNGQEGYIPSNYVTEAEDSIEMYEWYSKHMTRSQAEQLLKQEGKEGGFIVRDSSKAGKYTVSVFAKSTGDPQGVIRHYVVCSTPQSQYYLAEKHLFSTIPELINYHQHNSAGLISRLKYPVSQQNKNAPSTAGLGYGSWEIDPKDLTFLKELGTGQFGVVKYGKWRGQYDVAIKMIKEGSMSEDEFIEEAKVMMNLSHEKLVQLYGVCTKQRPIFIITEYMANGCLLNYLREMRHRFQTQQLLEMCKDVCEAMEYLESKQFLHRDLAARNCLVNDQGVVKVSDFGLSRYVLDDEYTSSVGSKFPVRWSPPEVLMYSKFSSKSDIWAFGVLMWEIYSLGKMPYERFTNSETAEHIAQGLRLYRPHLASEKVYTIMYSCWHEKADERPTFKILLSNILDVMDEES
As to the kind of experiment: Assay of inhibition activity of BTK in vitro (HTRF kit, read on Envision). Format: biochemical. The note with it: 1.0 nM BTK, 1 μM biotin-TK1 peptide, 20 μM ATP, 23° C., tested by Envision; read-out: BTK IC50. The method, then: Assay of Inhibition Activity of BTK In Vitro
The inhibition of compounds on BTK kinase was evaluated by […] detected by Envision, using the IC50 value of the compounds as index.
BTK kinase: Invitrogen-PR5442A
HTRF Assay Kit: Cisbio-62TKOPEJ
Plate for compound preparation: Greiner-781280
Cisbio HTRF Kit: Cisbio-62TKOPEJ
Centrifuge: Eppendorf-5810R
Bravo: Agilent Technologies-Bravo
Gradient Dilution of Compounds: […]
The test compound was dissolved with DMSO to be of 1 mM as a stock solution. Such a stock solution was diluted with DMSO by 10-fold, thereby obtaining an initial solution in a concentration of […] which was added into wells at the second column in a plate. 20 μL DMSO was added to other wells using Bravo. Then, 10 μL of the initial solution was transferred from wells at the second column to wells at the third column, followed by mixing obtained solution in the wells at the third column, thereby obtain a first diluted solution in a concentration of 1/3 μM. Subsequently, 10 μL of the first diluted solution was further transferred from wells at the third column to wells at the fourth column, followed by mixing obtained solution in the wells at the fourth column, thereby obtain a second diluted solution in a concentration of 1/9 μM. Such a three-fold serial dilution was performed 10 times, with 11 solutions in series diluted concentrations and a final diluted solution in a concentration of 0.017 nM obtained.
All diluted solutions were further diluted by 25-fold with ultrapure water, thus obtain test solutions, which were equilibrated at r.t. for 30 min before use.
To 2.5 μL of test solution, which was pipetted into each well of Assay plate using Bravo, 5 μL kinase mixture was added using the multi-channel pipettor. The mixture was centrifuged at 1000 rpm for 20 s, followed by incubation at 23° C. for 30 min. The reaction was initiated by 2.5 μL ATP mixture which was pipetted into the wells by Multidrop.
The reaction mixture of BTK kinase (10 μL) included 1.0 nM BTK, 1 μM biotin-TK1 peptide and 20 μM ATP. The reaction buffer included 50 mM Hepes (pH7.5), 10 mM MgCl2 and 0.01 mM […]. The kinase mixture was reacted in incubator at 23° C. for 90 mim.
The reaction was stopped by adding 10 μL Detection Reagent to each well of Assay plate, and the plate was left in incubator at 23° C. for 1 h before read on Envision.
Data analysis: The IC50 values of compounds were calculated using Excel fit.
In general terms: In TR-FRET formats the signal depends on donor and acceptor labels being close together.
For `C=CC(=O)N[C@H]1CC[C@@H](n2nc(-c3ccc(Oc4ccccc4)cc3)c3c(N)n[nH]c(=O)c32)CC1` [Example 57], the IC50 is below 0.1 µM.

Turning to `C=CS(=O)(=O)N[C@H]1CC[C@@H](n2nc(-c3ccc(Oc4ccccc4)cc3)c3c(N)n[nH]c(=O)c32)CC1` [Example 58], the IC50 is below 0.1 µM.

On to `CN(C)C/C=C/C(=O)N[C@H]1CC[C@@H](n2nc(-c3ccc(Oc4ccccc4)cc3)c3c(N)n[nH]c(=O)c32)CC1` [Example 59], for which the IC50 was below 0.1 µM.

Consider `C=CC(=O)N1CC[C@@H](n2nc(-c3ccc(Oc4ccccc4)cc3)c3c(N)n[nH]c(=O)c32)C1` [Example 60], for which the IC50 was below 0.1 µM.

For the compound `CN(C)C/C=C/C(=O)N1CC[C@@H](n2nc(-c3ccc(Oc4ccccc4)cc3)c3c(N)n[nH]c(=O)c32)C1` [Example 61], the IC50 is below 0.1 µM.

As to `C=CC(=O)NC1CCCC(n2nc(-c3ccc(Oc4ccccc4)cc3)c3c(N)n[nH]c(=O)c32)C1` (stereo not drawn) [Example 62], the IC50 is below 0.1 µM.

For the compound `C=CC(=O)N[C@H]1CC[C@H](n2nc(-c3ccc(Oc4ccccc4)cc3)c3c(N)n[nH]c(=O)c32)CC1` [Example 63], the IC50 was below 0.1 µM.

On to `CN(C)C/C=C/C(=O)N[C@H]1CC[C@@H](n2nc(-c3ccc(Oc4ccccn4)cc3)c3c(N)n[nH]c(=O)c32)CC1` [Example 64], for which the IC50 lay in the range of 0.1 to 1 µM.

Take `C=CC(=O)N[C@H]1CC[C@@H](n2nc(-c3ccc(Oc4ccccn4)cc3)c3c(N)n[nH]c(=O)c32)CC1` [Example 65]: the IC50 is below 0.1 µM.

On to `C=CC(=O)N1CCC[C@@H](n2nc(-c3ccc(C(=O)N4CCCC4)cc3)c3c(N)n[nH]c(=O)c32)C1` [Example 66], for which the IC50 is below 0.1 µM.

In the case of `C=CC(=O)N1CCCC(n2nc(-c3ccc(Oc4cccc(C)c4)cc3)c3c(N)n[nH]c(=O)c32)C1` (stereo not drawn) [Example 67], the IC50 was 1 to 10 µM.

For `C=CC(=O)N1CCCC(n2nc(-c3ccc(Oc4ccccn4)cc3)c3c(N)n[nH]c(=O)c32)C1` (stereo not drawn) [Example 68], the IC50 is below 0.1 µM.

As for `C=CC(=O)Nc1cccc(-n2nc3c(=O)[nH]nc(N)c3c2-c2ccc(Oc3ccccc3)cc2)c1` [Example 69], the IC50 was below 0.1 µM.

Turning to `C=CC(=O)N1CCCC(n2nc(-c3ccc(Oc4ccccc4)cc3)c3c(N)noc(=O)c32)C1` (stereo not drawn) [Example 70], the 50% inhibitory concentration (IC50) is 1 to 10 µM.

With `C=CC(=O)N1CCCC(n2nc(-c3ccc(Oc4ccccc4F)cc3)c3c(N)n[nH]c(=O)c32)C1` (stereo not drawn) [Example 71], the concentration for half-maximal inhibition (IC50) is below 0.1 µM.

For `C=CC(=O)N1CCCC(n2nc(-c3ccc(Oc4ccccc4)nc3)c3c(N)n[nH]c(=O)c32)C1` (stereo not drawn) [Example 72], the IC50 was below 0.1 µM.

As for `C=CC(=O)N1CC(n2nc(-c3ccc(Oc4ccccc4)cc3)c3c(N)n[nH]c(=O)c32)C1` [Example 73], the IC50 was below 0.1 µM.

As for `C=CC(=O)N1CCC[C@@H](n2nc(-c3ccc(OC4Cc5ccccc5C4)cc3)c3c(N)n[nH]c(=O)c32)C1` [Example 74], the concentration for half-maximal inhibition (IC50) is below 0.1 µM.

Take `CN(C)C/C=C/C(=O)N1CCC[C@@H](n2nc(-c3ccc(OC4Cc5ccccc5C4)cc3)c3c(N)n[nH]c(=O)c32)C1` [Example 75]: the IC50 is below 0.1 µM.

In the case of `N#CC(=CC1CC1)C(=O)N1CCC[C@@H](n2nc(-c3ccc(Oc4ccccc4)cc3)c3c(N)n[nH]c(=O)c32)C1` [Example 76], the IC50 was below 0.1 µM.

`C=CS(=O)(=O)N1CCC[C@@H](n2nc(-c3ccc(Oc4ccccc4)cc3)c3c(N)n[nH]c(=O)c32)C1` [Example 77]: the IC50 is below 0.1 µM.

`C=CC(=O)N1CCCC(c2c3c(=O)[nH]nc(N)c3nn2-c2ccc(Oc3ccccc3)cc2)C1` (stereo not drawn) [Example 78]: the IC50 is 0.1 to 1 µM.

`C=CC(=O)N1CCC[C@@H](n2nc(-c3ccc(OC4CCCC4)cc3)c3c(N)n[nH]c(=O)c32)C1` [Example 79]: the IC50 is below 0.1 µM.

For `C=CC(=O)N1CCC[C@@H](n2nc(-c3ccc(OC4CCCCC4)cc3)c3c(N)n[nH]c(=O)c32)C1` [Example 80], the IC50 was below 0.1 µM.

With `CN(C)C/C=C/C(=O)N1CCC[C@@H](n2nc(-c3ccc(Oc4ccccc4)cc3)c3c(N)n[nH]c(=O)c32)C1` [Example 81], the IC50 is below 0.1 µM.

Consider `C=CC(=O)N(C)[C@H]1CC[C@@H](n2nc(-c3ccc(Oc4ccccc4)cc3)c3c(N)n[nH]c(=O)c32)CC1` [Example 82], for which the IC50 is below 0.1 µM.

Turning to `C=CC(=O)N[C@H]1CC[C@@H](n2nc(-c3ccc(Oc4ccccc4F)cc3)c3c(N)n[nH]c(=O)c32)CC1` [Example 83], the IC50 is below 0.1 µM.

As for `CN(C)/C=C/CC(=O)N1CCCC(n2nc(-c3ccc(Oc4ccccc4)cc3)c3c(N)n[nH]c(=O)c32)C1` (stereo not drawn) [Example 84], the IC50 is below 0.1 µM.

For the compound `C=CC(=O)N1CCCC(n2nc(-c3ccc(Oc4ccccc4)cc3)c3c(N)nn(C)c(=O)c32)C1` (stereo not drawn) [Example 85], the IC50 was 0.1 to 1 µM.

For `C=CC(=O)N1CCCC(n2nc(-c3ccc(Oc4ccccc4)cc3)c3c(N)nn(CC)c(=O)c32)C1` (stereo not drawn) [Example 86], the IC50 is 1 to 10 µM.

As for `C=CC(=O)N1CCCC(n2nc(-c3ccc(Oc4ccccc4)cc3)c3c(N)nn(CC(F)(F)F)c(=O)c32)C1` (stereo not drawn) [Example 87], the IC50 was 1 to 10 µM.

Regarding `C=CC(=O)N1CCC[C@@H](n2nc(-c3ccc(-c4nc5ccccc5o4)cc3)c3c(N)n[nH]c(=O)c32)C1` [Example 88], the IC50 was below 0.1 µM.

With `C=CC(=O)N1CCC[C@@H](n2nc(-c3ccc(Oc4cc(C)ccn4)cc3)c3c(N)n[nH]c(=O)c32)C1` [Example 89], the IC50 is below 0.1 µM.

Turning to `C=CC(=O)N1CCC[C@@H](n2nc(-c3ccc(Oc4ccc(C)nn4)cc3)c3c(N)n[nH]c(=O)c32)C1` [Example 90], the IC50 was 0.1 to 1 µM.

Turning to `C=CC(=O)N1CCC[C@@H](n2nc(-c3ccc(Oc4ccc(C)cn4)cc3)c3c(N)n[nH]c(=O)c32)C1` [Example 91], the IC50 is below 0.1 µM.

Take `C=CC(=O)N1CCC[C@@H](n2nc(-c3ccc(Oc4cccc(C)n4)cc3)c3c(N)n[nH]c(=O)c32)C1` [Example 92]: the IC50 was below 0.1 µM.

For the compound `C=CC(=O)N1CCC[C@@H](n2nc(-c3ccc(Oc4ncccc4C)cc3)c3c(N)n[nH]c(=O)c32)C1` [Example 93], the half-maximal inhibitory concentration (IC50) was below 0.1 µM.

`C=CC(=O)N1CCCC(n2nc(-c3ccc(Oc4ccccc4)cc3)c3cc4c(N)noc4cc32)C1` (stereo not drawn) [Example 107]: the IC50 was in the range of 1 to 10 µM.

For `C=CC(=O)N1CCCC(n2nc(-c3ccc(Oc4ccccc4)cc3)c3cc4c(N)ncnc4cc32)C1` (stereo not drawn) [Example 108], the IC50 lay in the range of 1 to 10 µM.
